In ChEMBL document CHEMBL1201862, “PubChem BioAssay data set” (2004):
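96-well plates; 48 h exposure; 5 concentrations. Endpoints by linear interpolation between flanking doses. Not reached: highest tested concentration assigned. GI50 = concentration required for 50% inhibition of growth.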 Active and inactive are the calls of the source. Cut-off read from the data, not from the text of the source: active = GI50 up to about 1.1 µM and inactive = higher.

Tests used:
Experiment in all cases: growth of human tumour cells (NCI), 48 h
[1] = tested on: COLO 205
[2] = tested on: MDA-N
[3] = tested on: UACC-257
[4] = tested on: HT-29
[5] = tested on: KM12
[6] = tested on: NCI-H460
[7] = tested on: PC-3
[8] = tested on: MOLT-4
[9] = tested on: A549
[10] = tested on: SF-539
[11] = tested on: SK-MEL-28
[12] = tested on: CCRF-CEM
[13] = tested on: IGROV-1
[14] = tested on: SR
[15] = tested on: CAKI-1
[16] = tested on: BT-549
[17] = tested on: SK-MEL-2
[18] = tested on: SN12C
[19] = tested on: Hs-578T
[20] = tested on: T47D

SMILES: C[N+](C)(C)CC1CCCC(C[N+](C)(C)C)C1=O (stereo not given)
- GI50 [1]: 0.374 µM (active)
- GI50 [2]: 3.49 µM (inactive)
- GI50 [3]: 0.805 µM (active)
- GI50 [4]: 1.3 µM (inactive)
- GI50 [5]: 4.66 µM (inactive)
- GI50 [6]: 16.3 µM (inactive)
- GI50 [7]: 4.61 µM (inactive)
- GI50 [8]: 0.133 µM (active)
- GI50 [9]: 14.8 µM (inactive)
- GI50 [10]: 4.79 µM (inactive)
- GI50 [11]: 1.85 µM (inactive)
- GI50 [12]: 0.1 µM (active)
- GI50 [13]: 5.24 µM (inactive)
- GI50 [14]: 0.158 µM (active)
- GI50 [15]: 0.984 µM (active)
- GI50 [16]: 1.58 µM (inactive)
- GI50 [17]: 1.9 µM (inactive)
- GI50 [18]: 1.19 µM (inactive)
- GI50 [19]: 13 µM (inactive)
- GI50 [20]: 1.09 µM (active)

SMILES: Cc1ccc(/N=N/c2c(C)c(C#N)c(=S)n(C3OC(CO)C(O)C(O)C3O)c2C)cc1 (stereo not given)
- GI50 [1]: 38.7 µM (inactive)
- GI50 [2]: 36.4 µM (inactive)
- GI50 [3]: 63 µM (inactive)
- GI50 [4]: 30.9 µM (inactive)
- GI50 [5]: 41.1 µM (inactive)
- GI50 [6]: 23.7 µM (inactive)
- GI50 [7]: 28.2 µM (inactive)
- GI50 [8]: 12.9 µM (inactive)
- GI50 [9]: 40.6 µM (inactive)
- GI50 [10]: 40.9 µM (inactive)
- GI50 [11]: 22.1 µM (inactive)
- GI50 [12]: 20 µM (inactive)
- GI50 [13]: 38.9 µM (inactive)
- GI50 [14]: 26 µM (inactive)
- GI50 [15]: 37.2 µM (inactive)
- GI50 [16]: 26.2 µM (inactive)
- GI50 [17]: 30.6 µM (inactive)
- GI50 [18]: 28.2 µM (inactive)
- GI50 [19]: 17 µM (inactive)
- GI50 [20]: 23.3 µM (inactive)

SMILES: COc1cccc(-c2nnc3c(-c4ccccc4)nc4ccccc4n23)c1
- GI50 [1]: 8.57 µM (inactive)
- GI50 [2]: 3.5 µM (inactive)
- GI50 [3]: 17.9 µM (inactive)
- GI50 [4]: 19.2 µM (inactive)
- GI50 [5]: 4.94 µM (inactive)
- GI50 [6]: 10.3 µM (inactive)
- GI50 [7]: 16.4 µM (inactive)
- GI50 [8]: 9.53 µM (inactive)
- GI50 [9]: 21.2 µM (inactive)
- GI50 [10]: 65.8 µM (inactive)
- GI50 [11]: > 77.4 µM (inactive)
- GI50 [12]: 11.2 µM (inactive)
- GI50 [13]: 21.6 µM (inactive)
- GI50 [14]: 3.9 µM (inactive)
- GI50 [15]: 33.6 µM (inactive)
- GI50 [16]: 35.9 µM (inactive)
- GI50 [17]: 10.1 µM (inactive)
- GI50 [18]: 73.1 µM (inactive)
- GI50 [19]: 57.9 µM (inactive)
- GI50 [20]: 4.35 µM (inactive)

SMILES: Cc1nn(C(=O)c2ccc(Cl)cc2)c2c1C(c1ccccc1)SC(=N)N2 (stereo not given)
- GI50 [1]: > 10 µM (inactive)
- GI50 [2]: > 10 µM (inactive)
- GI50 [3]: > 10 µM (inactive)
- GI50 [4]: > 10 µM (inactive)
- GI50 [5]: > 10 µM (inactive)
- GI50 [6]: > 10 µM (inactive)
- GI50 [7]: > 10 µM (inactive)
- GI50 [8]: > 10 µM (inactive)
- GI50 [9]: > 10 µM (inactive)
- GI50 [10]: > 10 µM (inactive)
- GI50 [11]: > 10 µM (inactive)
- GI50 [12]: > 10 µM (inactive)
- GI50 [13]: > 10 µM (inactive)
- GI50 [14]: > 10 µM (inactive)
- GI50 [15]: > 10 µM (inactive)
- GI50 [16]: > 10 µM (inactive)
- GI50 [17]: > 10 µM (inactive)
- GI50 [18]: > 10 µM (inactive)
- GI50 [19]: > 10 µM (inactive)
- GI50 [20]: > 10 µM (inactive)

SMILES: CCc1c(CNC2=NCCN2)c(CC)c(CNC2=NCCN2)c(CC)c1CNC1=NCCN1
- GI50 [1]: > 100 µM (inactive)
- GI50 [2]: > 100 µM (inactive)
- GI50 [3]: > 100 µM (inactive)
- GI50 [4]: > 100 µM (inactive)
- GI50 [5]: > 100 µM (inactive)
- GI50 [6]: > 100 µM (inactive)
- GI50 [7]: > 100 µM (inactive)
- GI50 [8]: > 100 µM (inactive)
- GI50 [9]: > 100 µM (inactive)
- GI50 [10]: > 100 µM (inactive)
- GI50 [11]: > 100 µM (inactive)
- GI50 [12]: > 100 µM (inactive)
- GI50 [13]: > 100 µM (inactive)
- GI50 [14]: > 100 µM (inactive)
- GI50 [15]: > 100 µM (inactive)
- GI50 [16]: > 100 µM (inactive)
- GI50 [17]: > 100 µM (inactive)
- GI50 [18]: > 100 µM (inactive)
- GI50 [19]: > 100 µM (inactive)
- GI50 [20]: > 100 µM (inactive)

SMILES: CC1C2CCC3C(O)C2(CC(O)C2(O)C1CC(O)C2(C)C)CC3(C)O (stereo not given)
- GI50 [1]: > 100 µM (inactive)
- GI50 [2]: > 100 µM (inactive)
- GI50 [3]: > 100 µM (inactive)
- GI50 [4]: > 100 µM (inactive)
- GI50 [5]: > 100 µM (inactive)
- GI50 [6]: > 100 µM (inactive)
- GI50 [7]: > 100 µM (inactive)
- GI50 [8]: > 10 µM (inactive)
- GI50 [9]: > 100 µM (inactive)
- GI50 [10]: > 100 µM (inactive)
- GI50 [11]: > 100 µM (inactive)
- GI50 [12]: > 100 µM (inactive)
- GI50 [13]: > 100 µM (inactive)
- GI50 [14]: > 100 µM (inactive)
- GI50 [15]: > 100 µM (inactive)
- GI50 [16]: > 100 µM (inactive)
- GI50 [17]: > 100 µM (inactive)
- GI50 [18]: > 100 µM (inactive)
- GI50 [19]: > 100 µM (inactive)
- GI50 [20]: > 100 µM (inactive)
